Values after ≈ are worked out from the molar mass of the structure shown. Where two headings read alike, the source gives them in different places.
Legend:
[1] = literature; cited from earlier work
[2] = literature; cited from earlier work; remark: listed apart in the source
[3] = tested on: Gram-positive and Gram-negative bacteria; conditions: literature; cited from earlier work
eukaryotic parasites = conditions: literature; cited from earlier work
[4] = tested on: Streptococcus pyogenes C 203; test: In vivo antibacterial activity, experimental pulmonary infection in mouse; conditions: for ED50: Streptococcus pyogenes, C203, ip, 240 h, intraperitoneal single dose, read-out: average protecting dose PD50
Procedure: The in vivo antibacterial activity of the compounds of formula (I), expressed as average protecting dose PD50 (mg/Kg), was evaluated by means of experimental pulmonary infection induced in mouse by Streptococcus pyogenes (example 23).
b) In vivo antibacterial activity
The therapeutical effectiveness, expressed as average protecting dose (PD50), of the considered compounds of formula (I) was evaluated by experimental pulmonary infection induced in mouse by Streptococcus pyogenesC 203.
Charles River albin mice (strain CD 1), of body weight comprised between 23-35 g, stabulated in groups of 6 for cage and normo-feeded with standard diet and water ad libitum were used. A suspension of S. pyogenes C 203 (corresponding about to 10^8 UFC) in tryptose broth (0.05 ml) was intranasally administered to each mouse anesthesized with a mixture of ethyl ether and chloroform.
The compounds under examination were intraperitoneally administered as a single dose, in 0.2% Tween suspension, 24 hours before or 1 hour after the infection.
Mice mortality observation was prolonged up to 10 days from the infection.
PD50 calculation, expressed as (mg/Kg), was carried out through the analysis of probit.
In vivo antibacterial activity, expressed as average protecting dose PD50 (mg/Kg), 24 hours before and 1 hour after the experimental pulmonary infection induced in mouse by Streptococcus pyogenes C 203, of the compounds 4, 10, 16-19, 21, 23, 26-27, 29-30, 33-35 and 38 and of the reference compounds Roxithromycin and Clarithromycin.

[5] = tested on: Enterococcus faecalis ATCC 29212; test: In vitro antibacterial activity, MIC, broth microdilution; type: cell-based; conditions: Enterococcus faecalis, ATCC29212; E. faecalis ATCC 29212; MHB; 37° C., 18 hours; read-out: minimum inhibiting concentration MIC
Outline: (§1)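 Twofold serial broth microdilution in Mueller Hinton Broth, supplemented with 5% horse serum for S. pneumoniae and S. pyogenes. Plates incubated 37 °C for 18 hours; MIC (μg/ml) taken as lowest concentration inhibiting bacterial growth.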

[6] = tested on: Staphylococcus aureus PV 14; test: as above; type: cell-based; conditions: Staphylococcus aureus, PV14; S. aureus PV 14; MHB; 37° C., 18 hours; read-out: minimum inhibiting concentration MIC
Outline: as §1

[7] = tested on: Klebsiella pneumoniae ZC 2; test: as above; type: cell-based; conditions: Klebsiella pneumoniae, ZC2; K. pneumoniae ZC 2; MHB; 37° C., 18 hours; read-out: minimum inhibiting concentration MIC
Outline: as §1

[8] = tested on: Streptococcus pyogenes A 26; test: as above; type: cell-based; conditions: Streptococcus pyogenes, A26; S. pyogenes A 26; MHB + 5% horse serum; 37° C., 18 hours; read-out: minimum inhibiting concentration MIC
Outline: as §1

[9] = tested on: Streptococcus pneumoniae BS 4; test: as above; type: cell-based; conditions: Streptococcus pneumoniae, BS4; S. pneumoniae BS 4; MHB + 5% horse serum; 37° C., 18 hours; read-out: minimum inhibiting concentration MIC
Outline: as §1

[10] = tested on: Streptococcus pyogenes C 203; test: as above; type: cell-based; conditions: Streptococcus pyogenes, C203; S. pyogenes C 203; MHB + 5% horse serum; 37° C., 18 hours; read-out: minimum inhibiting concentration MIC
Outline: as §1

[11] = tested on: Streptococcus pneumoniae BS 3; test: as above; type: cell-based; conditions: Streptococcus pneumoniae, BS3; S. pneumoniae BS 3; MHB + 5% horse serum; 37° C., 18 hours; read-out: minimum inhibiting concentration MIC
Outline: as §1

[12] = tested on: Escherichia coli ATCC 25922; test: as above; type: cell-based; conditions: Escherichia coli, ATCC25922; E. coli ATCC 25922; MHB; 37° C., 18 hours; read-out: minimum inhibiting concentration MIC
Outline: as §1

For CC[C@H]1OC(=O)[C@H](C)[C@@H](O[C@H]2C[C@@](C)(OC)[C@@H](O)[C@H](C)O2)[C@H](C)[C@@H](O[C@@H]2O[C@H](C)C[C@H](N(C)C)[C@H]2O)[C@](C)(O)C[C@@H](C)C(=NOCCN(C)C)[C@H](C)[C@@H](O)[C@]1(C)O [Erythromycin A 9-[0-[(2-dimethylamino)ethyl]oxime]], the “stability to the acids (in words)” value [1] is listed as “superior stability to the acids”, the “pharmacokinetic properties / bioavailability (in words)” value [2] is listed as “better pharmacokinetic properties” and the “spectrum of activity in vitro (in words)” value [3] is listed as “comparable to that of Erythromycin A”.
For CC[C@H]1OC(=O)[C@H](C)[C@@H](O[C@H]2C[C@@](C)(OC)[C@@H](O)[C@H](C)O2)[C@H](C)[C@@H](O[C@@H]2O[C@H](C)C[C@H](N(C)C)[C@H]2O)[C@](C)(O)C[C@@H](C)C(=O)[C@H](C)[C@@H](O)[C@]1(C)O [Erythromycin A], the “spectrum of activity in vitro (in words)” value [3] is given as “antibacterial activity mainly against Gram-positive microorganisms” and the “activity against eukaryotic parasites (in words)” value (eukaryotic parasites) is given as “active against eukaryotic parasites”.
In the case of CC[C@H]1OC(=O)[C@H](C)[C@@H](O[C@H]2C[C@@](C)(OC)[C@@H](O)[C@H](C)O2)[C@H](C)[C@@H](O[C@@H]2O[C@H](C)C[C@H](N(C)C)[C@H]2O)[C@](C)(O)C[C@@H](C)/C(=N\OCOCCOC)[C@H](C)[C@@H](O)[C@]1(C)O [Roxithromycin, Erythromycin A 9-[0-[(2-methoxyethoxy)methyl]oxime], reference compound], the “stability to the acids (in words)” value [1] is listed as “superior stability to the acids”, the ED50 ([4]; 1 hour after infection) is listed as 0.9 mg/kg and the ED50 ([4]; 24 hours before infection) is listed as greater than 25 mg/kg. For the same molecule, the “in vivo activity, pulmonary infection (in words)” value ([4]; administered 24 hours before the infection) was “inactive”, the “pharmacokinetic properties / bioavailability (in words)” value [2] was “better pharmacokinetic properties” and the MIC [5] was 4 µg/mL (≈ 4.78 µM). The MIC [6] was 1 µg/mL (≈ 1.19 µM), the MIC [7] was 256 µg/mL (≈ 306 µM) and the MIC [8] was 0.0625 µg/mL. It also gave an MIC [9] of 0.0625 µg/mL, an MIC [10] of 0.0625 µg/mL and an MIC [11] of 0.0312 µg/mL. The MIC [12] was 28 µg/mL (≈ 33.5 µM) and the “spectrum of activity in vitro (in words)” value [3] was “comparable to that of Erythromycin A”.

Source: patent publication US5847092A (Zambon Group S.p.A., priority 1994, dated 1998)
